Assay [1] deals with T1, MAT2A homodimer (Homo sapiens, UniProt P31153).
T1 construct: inferred from Ni sepharose purification with imidazole elution; made in house; host or cells: Sf9 insect cells, baculovirus (Bac to Bac, pFASTBAC1)
The experiment in a line: MAT2A inhibition (biochemical, liberated phosphate, PiColorLock Gold). The settings on record: recombinant MAT2A homodimer; IC50 bin with Max Inh.; read-out: Enzyme Inhibition Bin. Here is the method: Mat2A protein was expressed by recombinant baculovirus in SF9 infected cells using the Bac to Bac system cloned into the pFASTBAC1 vector (Invitrogen, Carlsbad, Calif.). Recombinant MAT2A was isolated from the cell lysate of 150 g of infected cells using HP Ni sepharose column chromatography. Recombinant MAT2A homodimer was eluted with 250 and 500 mM imidazole, and fractions containing MAT2A were identified by sodium dodecyl sulfate polyacrylamide gel electrophoresis and pooled.
For determination of the inhibitory potency of compounds against the MAT2A homodimer, protein was diluted to 4 μg/mL in assay buffer (50 mM Tris, pH 8.0, 50 mM KCl, 15 mM MgCl2, 0.3 mM EDTA, 0.005% [w/v] bovine serum albumin [BSA]). Test compound was prepared in 100% dimethyl sulfoxide (DMSO) at 50× the desired final concentration. A 1 μL volume of compound dilution was added to 40 μL of enzyme dilution and the mixture was allowed to equilibrate for 60 minutes at 25° C. The enzymatic assay was initiated by the addition of 10 μL of substrate mix (500 μM ATP, pH 7.0, 400 μM L-methionine in 1× assay buffer), and the mixture was incubated for a further 60 minutes at 25° C. The reaction was halted and the liberated phosphate released by the enzyme in stoichiometric amounts by the production of S-adenosyl methionine (SAM) was measured using the PiColorLock Gold kit (Innova Biosciences, UK). Absolute product amounts were determined by comparison to a standard curve of potassium phosphate buffer, pH 8.0. The compounds were also tested in a secondary assay utilizing 1 μg/mL MAT2A and incubated for 5 hours at 25° C. before halting and processing as above.
Specific compounds disclosed herein were tested in the foregoing assay and they were determined to inhibit MAT2A with an IC50. See, Table 1 below.

For assay [2], the system named is SAM in HCT116 human colon carcinoma cell line with MTAP gene deleted (MTAP −/−). The experiment in a line: Cellular assay of target engagement (SAM), LC-MS/MS, 72 hrs. The class given is cell-based. The settings on record: HCT-116, IC50 bin with Max Inh., read-out: Cell 72 h SAM Inhibition (MTAP −/−). Here is the method:
Measurement of MAT2A activity in cells was made by direct quantitation of the abundance of the product of its enzymatic activity, SAM. Cancer cells were treated with candidate MAT2A inhibitors for a suitable incubation period, and the cells were then lysed using a reagent which quenched any further enzyme activity. Soluble metabolites including SAM were collected and SAM itself was directly measured from the lysate using quantitative LC-MS/MS.
A typical assay was performed using an HCT116 human colon carcinoma cell line which was genetically engineered to delete the MTAP gene (commercially available from Horizon Discovery). This cell line was utilized because it was determined that loss of the MTAP gene predicts sensitivity to MAT2A inhibitors. Cells were plated in 96-well dishes at appropriate cell density. Following 24 hours, cells were then treated with the candidate MAT2A inhibitor. Prior to addition to cells, the compound was first serially diluted in 100% DMSO, typically as a 3-fold serial dilution starting at 500× top dose with 10 dose points including DMSO only control. Compound was then transferred to a working stock plate in cell culture media by adding 5 μL of compound in DMSO to 495 μL of cell culture media. This working stock was then added to cells via a further 5-fold dilution, by adding 25 μL of working stock to 100 μL of cells in culture media. Following compound addition, cells were incubated at 37° C./5% CO2 for 72 hrs.
To quantitate SAM levels following compound treatment, cells were gently washed once in ammonium carbonate buffer (75 mM at pH 7.4), placed on dry ice, and lysed with metabolite extraction buffer (80% cold methanol and 20% water (v/v) with acetic acid at 1M final concentration with 200 ng/mL deuterated d3-SAM as internal control). Following centrifugation at 4° C. at 3,200 rpm for 30 minutes, the supernatant was collected and stored at −80° C. until analysis by Liquid Chromatography with tandem Mass Spectrometry (LC-MS/MS). LC-MS/MS analysis was performed using an API6500 Mass Spectrometer (Sciex, Framingham, Mass., USA) operating in positive ion spray mode and equipped with a Waters UPLC Acquity (Waters, Milford, Mass., USA) BEH Amide column. Multiple Reaction Monitoring data was acquired for SAM and the d3-SAM standard, using a mass transition pair at m/z 399.2→250.1 and 402.2→250.1, respectively. In a typical LC-MS/MS analysis, the initial flow rate was 0.5 ml/min of 25% mobile phase A (acetonitrile and water at 5:95 (v/v) with 1% formic acid and 10 mM ammonium acetate) and 75% mobile phase B (acetonitrile and water at 95:5 (v/v) with 1% formic acid and 10 mM ammonium acetate), 0.2-0.5 minutes with 75%-35% mobile phase B, 25%-65% mobile phase A, at 0.5 min 65% mobile phase A and 35% mobile phase B, 1.0-1.1 minutes with 35%-75% mobile phase B, 65%-25% mobile phase A, at 1.1 min 25% mobile phase A and 75% mobile phase B with a total run time of 1.5 minutes.
Specific compounds disclosed herein were tested in the foregoing assay and they were determined to inhibit SAM with an IC50. See, Table 1 below.

The test system of assay [3] is HCT116 MTAP−/−. The experiment in a line: Inhibition of cellular proliferation, 4 days, Cell Titer Glo, HCT116 MTAP−/−. The class given is cell-based. The settings on record: Homo sapiens, HCT-116, 96 h, IC50 bin with Max Inh., read-out: 4 Day Relative Growth Inhibition (MTAP −/−). Here is the method: (§1) Test compound impact on cancer cell growth was assessed by treating cancer cells with compound for 4 days and then measuring proliferation using an ATP-based cell proliferation readout (Cell Titer Glo, Promega Corporation).
(§2) In a typical assay an isogenic pair of HCT116 human colon carcinoma cell lines which vary only in MTAP deletion status (HCT116 MTAP+/+ and HCT116 MTAP−/−) were plated in 96-well dishes at appropriate cell density. Following 24 hours, cells were then treated with the candidate MAT2A inhibitor. Prior to addition to cells, the compound was first serially diluted in 100% DMSO, typically as a 3-fold serial dilution starting at 500× top dose with 10 dose points including DMSO only control. Compound was then transferred to a working stock plate in cell culture media by adding 5 μL of compound in DMSO to 495 μL of cell culture media. This working stock was then added to cells via a further 5-fold dilution, by adding 25 μL of working stock to 100 μL of cells in culture media. Following compound addition, cells were incubated at 37° C./5% CO2 for 4 days.
(§3) To measure inhibition of cellular proliferation, cells were allowed to equilibrate to room temperature for 30 minutes, and were then treated with 125 μL of Cell Titer Glo reagent. The plate was then covered with aluminum foil and shaken for 15 minutes to ensure complete mixing and full cell lysis. Luminescent signal was then measured using a plate-based luminometer Veritas version 1.9.2 using ATP standard curve to confirm assay reproducibility from run to run. This luminescence measure was converted to a proliferation index by subtracting from each data point the ATP luminescence signal measured from a bank (no cells) well and dividing by the ATP luminescence signal measured in 0.2% DMSO control well adjusted for signal in blank well. Compound activity was then represented as a percentage change in proliferation relative to a within-plate DMSO control against log 10 of compound concentration in molar (M) units.
(§4) Specific compounds disclosed herein were tested in the foregoing assay and they were determined to inhibit cellular proliferation with an IC50. See, Table 1 below.
On the technique in general: Cellular ATP, detected with luciferase, serves as a proxy for viable cell number.

The subject of assay [4] is HCT116 MTAP+/+. The experiment in a line: Inhibition of cellular proliferation, 4 days, Cell Titer Glo, HCT116 MTAP+/+. The class given is cell-based. The settings on record: Homo sapiens, HCT-116, 96 h, IC50 bin with Max Inh., read-out: 4 Day Relative Growth Inhibition (MTAP +/+). Here is the method: as §1, §2, §3, §4

T1 sequence (P31153 whole entry): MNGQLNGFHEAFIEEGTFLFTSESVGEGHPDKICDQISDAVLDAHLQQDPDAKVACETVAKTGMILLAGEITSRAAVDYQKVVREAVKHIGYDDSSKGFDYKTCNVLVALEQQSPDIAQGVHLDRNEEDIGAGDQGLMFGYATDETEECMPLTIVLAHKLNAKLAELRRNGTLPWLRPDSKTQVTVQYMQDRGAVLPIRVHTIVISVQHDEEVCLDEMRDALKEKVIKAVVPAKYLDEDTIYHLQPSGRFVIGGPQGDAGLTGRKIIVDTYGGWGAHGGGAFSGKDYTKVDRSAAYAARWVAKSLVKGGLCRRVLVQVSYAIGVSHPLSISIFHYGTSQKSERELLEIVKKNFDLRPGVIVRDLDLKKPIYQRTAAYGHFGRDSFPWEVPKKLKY

For the compound `Cn1cc2cc(-n3nc4c(C#N)cn(CC5CC5)c4c(-c4ccc(C5(C)CC5)nc4)c3=O)ccc2n1` [Example 254, 5-(cyclopropylmethyl)-2-(2-methyl-2H-indazol-5-yl)-4-[6-(1-methylcyclopropyl)pyridin-3-yl]-3-oxo-2H,3H,5H-pyrrolo[3,2-c]pyridazine-7-carbonitrile], the IC50 was below 100 nM in assay [1], 100 to 1000 nM in assay [2], 100 to 1000 nM in assay [3] and 100 to 1000 nM in assay [4].

As for `Cn1cc2cc(-n3nc4cnn(CC5CC5)c4c(-c4ccc(C5CC5)nc4)c3=O)ccc2n1` [Example 219, 1-(cyclopropylmethyl)-7-(6-cyclopropylpyridin-3-yl)-5-(2-methyl-2H-indazol-5-yl)-1,5-dihydro-6H-pyrazolo[4,3-c]pyridazin-6-one], the IC50 was below 100 nM in assay [1], 100 to 1000 nM in assay [2], 100 to 1000 nM in assay [3] and 100 to 1000 nM in assay [4].

On to `Cn1cc2cc(-n3nc4ccn(CC5CC5)c4c(-c4ccc(OC(F)F)nc4)c3=O)ccc2n1` [Example 113, 5-(cyclopropylmethyl)-4-(6-(difluoromethoxy)pyridin-3-yl)-2-(2-methyl-2H-indazol-5-yl)-2,5-dihydro-3H-pyrrolo[3,2-c]pyridazin-3-one], for which the IC50 in assay [1] was below 100 nM; in assay [2], below 100 nM; in assay [3] it was below 100 nM; in assay [4], above 1000 nM.

With `Cn1cc2cc(-n3nc4c(C(F)(F)F)cn(CC5CC5)c4c(-c4ccc(C5CC5)nc4)c3=O)ccc2n1` [Example 246, 5-(cyclopropylmethyl)-4-(6-cyclopropylpyridin-3-yl)-2-(2-methyl-2H-indazol-5-yl)-7-(trifluoromethyl)-2,5-dihydro-3H-pyrrolo[3,2-c]pyridazin-3-one], the IC50 is below 100 nM in assay [1], below 100 nM in assay [2], below 100 nM in assay [3] and 100 to 1000 nM in assay [4].

In the case of `Cc1nn(CC2CC2)c2c(-c3ccc(OC(F)F)cc3)c(=O)n(-c3ccc4nn(C)cc4c3)nc12` [Example 212, 1-(cyclopropylmethyl)-7-(4-(difluoromethoxy)phenyl)-3-methyl-5-(2-methyl-2H-indazol-5-yl)-1,5-dihydro-6H-pyrazolo[4,3-c]pyridazin-6-one], the IC50 in assay [1], in assay [2], in assay [3] and in assay [4] was below 100 nM each time.

Consider `Cc1ccc(-c2c(=O)n(-c3ccc4nn(C)cc4c3)nc3c(F)cn(CC4CC4)c23)cn1` [Example 237, 5-(cyclopropylmethyl)-7-fluoro-2-(2-methyl-2H-indazol-5-yl)-4-(6-methylpyridin-3-yl)-2,5-dihydro-3H-pyrrolo[3,2-c]pyridazin-3-one], for which the IC50 was below 100 nM in assay [1], below 100 nM in assay [2], below 100 nM in assay [3] and 100 to 1000 nM in assay [4].

As to `Cn1cc2cc(-n3nc4c(S(N)(=O)=O)cn(CC5CC5)c4c(-c4ccc(C5CC5)nc4)c3=O)ccc2n1` [Example 185, 5-(cyclopropylmethyl)-4-(6-cyclopropylpyridin-3-yl)-2-(2-methyl-2H-indazol-5-yl)-3-oxo-3,5-dihydro-2H-pyrrolo[3,2-c]pyridazine-7-sulfonamide], the IC50 in assay [1] is below 100 nM; in assay [2], 100 to 1000 nM; in assay [3] it was 100 to 1000 nM; in assay [4] it was above 1000 nM.

Take `CCc1ccc(-c2c(=O)n(-c3ccc4nn(C)cc4c3)nc3ccn(CC4CC4)c23)cn1` [Example 135, 5-(cyclopropylmethyl)-4-(6-ethylpyridin-3-yl)-2-(2-methyl-2H-indazol-5-yl)-2,5-dihydro-3H-pyrrolo[3,2-c]pyridazin-3-one]: the IC50 in assay [1] was below 100 nM; in assay [2], below 100 nM; in assay [3], below 100 nM; in assay [4], 100 to 1000 nM.

On to `C[C@@H](O)c1cn(CC2CC2)c2c(-c3ccc(C4CC4)nc3)c(=O)n(-c3ccc4nn(C)cc4c3)nc12` [Example 249, (R)-5-(cyclopropylmethyl)-4-(6-cyclopropylpyridin-3-yl)-7-(1-hydroxyethyl)-2-(2-methyl-2H-indazol-5-yl)-2,5-dihydro-3H-pyrrolo[3,2-c]pyridazin-3-one], for which the IC50 was below 100 nM in assay [1], below 100 nM in assay [2], below 100 nM in assay [3] and above 1000 nM in assay [4].

With `Cn1cc2cc(-n3nc4c(C(N)=O)cn(CC5CC5)c4c(-c4ccc(Cl)cc4)c3=O)ccc2n1` [Example 170, 4-(4-chlorophenyl)-5-(cyclopropylmethyl)-2-(2-methyl-2H-indazol-5-yl)-3-oxo-3,5-dihydro-2H-pyrrolo[3,2-c]pyridazine-7-carboxamide], the IC50 in assay [1] was below 100 nM; in assay [2], below 100 nM; in assay [3], below 100 nM; in assay [4] it was above 1000 nM.

These data come from patent publication US20220169654A1, “New Organic Compounds” (Servier Pharmaceuticals LLC, priority 2020, published 2022).
